Like-named read-outs stand apart in the source and are kept apart here.
Experiments:
human DCTPP1 [1] = biological target: T1, human DCTPP1 (Homo sapiens, UniProt Q9H773); type: biochemical
T1 sequence (Q9H773 1-170): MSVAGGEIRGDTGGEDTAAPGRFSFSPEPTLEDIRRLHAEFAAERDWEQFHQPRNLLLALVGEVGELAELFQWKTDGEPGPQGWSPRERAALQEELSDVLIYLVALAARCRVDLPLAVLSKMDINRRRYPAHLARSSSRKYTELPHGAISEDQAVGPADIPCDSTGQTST

HeLa cells [2] = experiment: BrdC/BrdCTP incorporation into DNA detected with anti-BrdU antibody; type: cell-based, human; details: one-hour treatment
HeLa cells [3] = experiment: Cytotoxicity; type: cell-based; details: Homo sapiens, 48 h, read-out: IC50 (cell number)
human DCTPP1 [4] = biological target: T1, human DCTPP1; details: ITC, 25°C, value ± SD
native gel or EMSA + SEC = biological target: the molecule itself; experiment: native gel or EMSA + SEC

Nc1nc(=O)n([C@H]2C[C@H](O)[C@@H](COP(=O)(O)OP(=O)(O)OP(=O)(O)O)O2)cc1I [5-I-dCTP]
Km (human DCTPP1 [1]; as substrate of DCTPP1): 239 µM
kcat (human DCTPP1 [1]; as substrate of DCTPP1): 0.000864 s⁻¹

Nc1nc(=O)n([C@H]2C[C@H](O)[C@@H](COP(=O)(O)OP(=O)(O)OP(=O)(O)O)O2)cc1Br [BrdCTP]
BrdU incorporation (fraction of anti-BrdU reactive cells) (HeLa cells [2]): 30–43 % of cells

Nc1nc(=O)n([C@H]2C[C@H](O)[C@@H](CO)O2)cc1Br [BrdC]
BrdU incorporation (fraction of anti-BrdU reactive cells) (HeLa cells [2]): 30–43 % of cells

CC(C)[C@]12O[C@H]1[C@@H]1O[C@]13[C@]1(O[C@H]1C[C@H]1C4=C(CC[C@@]13C)C(=O)OC4)[C@@H]2O [compound 1, triptolide]
IC50 (HeLa cells [3]): 7 to 10 nM
ΔH (human DCTPP1 [4]): -83.6 ± 7.11 kJ/mol
ΔH (human DCTPP1 [4]; listed as triptolide): –19.98 ± 1.70 kcal/mol
n (binding stoichiometry) (human DCTPP1 [4]; per DCTPP1 monomer): 0.601 ± 0.075

Nc1ccn([C@@H]2O[C@H](COP(=O)(O)OP(=O)(O)OP(=O)(O)O)[C@@H](O)C2(F)F)c(=O)n1 [gemcitabine triphosphate]
activity as a DCTPP1 substrate (human DCTPP1 [1]; kinetic assays, data not shown): did not show activity as a DCTPP1 substrate

B1: recombinant human dCTP pyrophosphatase 1 (DCTPP1), GST tag cleaved off (enzyme, UniProt Q9H773 1-170, looked up)
chain: T1 sequence (Q9H773 1-170)
stoichiometry N (native gel or EMSA + SEC): 2

From article PMC3503517 (Chembiochem : a European journal of chemical biology, 2011)
